# According to patent US20130059879A1, “Small Molecule Inhibitors of PFKFB3 and Glycolytic Flux and Their Methods of Use as Anti-Cancer Therapeutics” (UNIVERSITY OF LOUISVILLE RESEARCH FOUNDATION, INC., priority 2010, published 2013):
# Tested on: NCI-H82
# Assay: Cancer cell proliferation, Alamar Blue assay, 72 hours
# Format: cell-based
# Details: Homo sapiens, NCI-H82, read-out: IC50 NCl-H82
# Procedure: (§1) The ability of the compounds described herein to kill or inhibit the proliferation of cancer cells was measured using either the MTT assay, or the Alamar Blue assay, or the Cell Titer Glow® assay using 48 or 72 hours exposure. […] The procedures are briefly described below. Cells of the desired tumor cell line were plated at 2×10^5 cells/ml in 96 well plates. Twice the indicated concentrations of the compounds of the invention were added to cells the following day in an equal volume of media. 72 hours later, cells were lysed and subjected to ATP determination using the CellTiter Glo-Luminescent Cell Viability Assay kit (Promega, Madison, Wis.). Experiments were done in triplicate. When using the MTT assay or the Alamar blue assay, the experimental conditions are essentially similar; at the end of the incubation period, 20 microliters of the MTT solution is added per well and the samples are incubated for an additional four hours, rinsed, and the absorbance at 570 nm measured. […] Table 2 lists the IC50 values for the compounds of the invention in several cell lines including Jurkat, Calu-6, NCI-H82, U937, HCT-116, and MDA-MB-231 cancer cell lines.
row,SMILES,IC50
1,"O=C(c1ccccc1)c1cc2c(ccc3cccnc32)[nH]1 [ACT-PFK-102, Phenyl-(7H-pyrrolo[2,3-h]quinolin-8-yl)-methanone]",> 100000 nM
2,"O=C(c1cccc(CO)c1)c1cc2c(ccc3ccccc32)[nH]1 [ACT-PFK-120, (3H-Benzo[e]indol-2-yl)-(3-hydroxymethyl-phenyl)-methanone]",270 nM
3,"O=C(c1cc2c(cc(F)c3ccccc32)[nH]1)C1CCCCC1 [ACT-PFK-121, Cyclohexyl-(5-fluoro-3H-benzo[e]indol-2-yl)-methanone]",335 nM
4,"O=C(c1ccc(O)c(F)c1)c1cc2c(cc(F)c3ccccc32)[nH]1 [ACT-PFK-122, (5-Fluoro-3H-benzo[e]indol-2-yl)-(3-fluoro-4-hydroxy-phenyl)-methanone]",320 nM
5,"COc1cccc(C(O)c2cc3c(ccc4ccccc43)[nH]2)c1 (stereo not shown) [ACT-PFK-124, (3H-Benzo[e]indol-2-yl)-(3-methoxy-phenyl)-methanol]",11200 nM
6,"OC(c1ccncc1)c1cc2c(ccc3ccccc32)[nH]1 (stereo not shown) [ACT-PFK-125, (3H-Benzo[e]indol-2-yl)-pyridin-4-yl-methanol]",20300 nM
7,"O=C(Nc1ccccc1)c1cc2c(ccc3ccccc32)[nH]1 [ACT-PFK-126, 3H-Benzo[e]indole-2-carboxylic acid phenylamide]",840 nM
8,"COc1cccc(NC(=O)c2cc3c(ccc4ccccc43)[nH]2)c1 [ACT-PFK-127, 3H-Benzo[e]indole-2-carboxylic acid (3-methoxy-phenyl)-amide]",755 nM

# Second part, the compound after the results:
row,IC50,SMILES
1,> 100000 nM,"CN(C)c1ccc(C(=O)c2cc3c(ccc4ccccc43)[nH]2)cc1 [ACT-PFK-128, (3H-Benzo[e]indol-2-yl)-(4-dimethylamino-phenyl)-methanone]"
2,370 nM,"COc1cc(C(=O)c2cc3c(ccc4ccccc43)[nH]2)ccc1N [ACT-PFK-129, (4-Amino-3-methoxy-phenyl)-(3H-benzo[e]indol-2-yl)-methanone]"
3,1450 nM,"COc1cc(C(=O)c2cc3c(cc(O)c4ccccc43)[nH]2)ccc1N [ACT-PFK-130, (4-Amino-3-methoxy-phenyl)-(5-hydroxy-3H-benzo[e]indol-2-yl)-methanone]"
4,> 100000 nM,"COc1cc(C(=O)c2cc3c(cc(OC)c4ccccc43)[nH]2)ccc1N [ACT-PFK-131, (4-Amino-3-methoxy-phenyl)-(5-methoxy-3H-benzo[e]indol-2-yl)-methanone]"
5,11900 nM,"CS(=O)(=O)Nc1ccc(C(=O)c2cc3c(ccc4ccccc43)[nH]2)cc1 [ACT-PFK-133, N-[4-(3H-Benzo[e]indole-2-carbonyl)-phenyl]-methanesulfonamide]"
6,3450 nM,"Nc1ccc(NC(=O)c2cc3c(ccc4ccccc43)[nH]2)cc1 [ACT-PFK-134, 3H-Benzo[e]indole-2-carboxylic acid (4-amino-phenyl)-amide]"

# Tested on: Jurkat
# Assay: as above
# Format: cell-based
# Details: Homo sapiens, Jurkat
# Procedure: as §1
row,SMILES,IC50
1,"O=C(c1ccccc1)c1cc2c(ccc3cccnc32)[nH]1 [ACT-PFK-102, Phenyl-(7H-pyrrolo[2,3-h]quinolin-8-yl)-methanone]",> 100000 nM
2,"O=C(c1cccc(CO)c1)c1cc2c(ccc3ccccc32)[nH]1 [ACT-PFK-120, (3H-Benzo[e]indol-2-yl)-(3-hydroxymethyl-phenyl)-methanone]",155 nM
3,"O=C(c1cc2c(cc(F)c3ccccc32)[nH]1)C1CCCCC1 [ACT-PFK-121, Cyclohexyl-(5-fluoro-3H-benzo[e]indol-2-yl)-methanone]",115 nM
4,"O=C(c1ccc(O)c(F)c1)c1cc2c(cc(F)c3ccccc32)[nH]1 [ACT-PFK-122, (5-Fluoro-3H-benzo[e]indol-2-yl)-(3-fluoro-4-hydroxy-phenyl)-methanone]",235 nM
5,"COc1cccc(C(O)c2cc3c(ccc4ccccc43)[nH]2)c1 (stereo not shown) [ACT-PFK-124, (3H-Benzo[e]indol-2-yl)-(3-methoxy-phenyl)-methanol]",8800 nM
6,"OC(c1ccncc1)c1cc2c(ccc3ccccc32)[nH]1 (stereo not shown) [ACT-PFK-125, (3H-Benzo[e]indol-2-yl)-pyridin-4-yl-methanol]",22700 nM
7,"O=C(Nc1ccccc1)c1cc2c(ccc3ccccc32)[nH]1 [ACT-PFK-126, 3H-Benzo[e]indole-2-carboxylic acid phenylamide]",850 nM
8,"COc1cccc(NC(=O)c2cc3c(ccc4ccccc43)[nH]2)c1 [ACT-PFK-127, 3H-Benzo[e]indole-2-carboxylic acid (3-methoxy-phenyl)-amide]",780 nM

# Second part, the compound after the results:
row,IC50,SMILES
1,> 100000 nM,"CN(C)c1ccc(C(=O)c2cc3c(ccc4ccccc43)[nH]2)cc1 [ACT-PFK-128, (3H-Benzo[e]indol-2-yl)-(4-dimethylamino-phenyl)-methanone]"
2,230 nM,"COc1cc(C(=O)c2cc3c(ccc4ccccc43)[nH]2)ccc1N [ACT-PFK-129, (4-Amino-3-methoxy-phenyl)-(3H-benzo[e]indol-2-yl)-methanone]"
3,1130 nM,"COc1cc(C(=O)c2cc3c(cc(O)c4ccccc43)[nH]2)ccc1N [ACT-PFK-130, (4-Amino-3-methoxy-phenyl)-(5-hydroxy-3H-benzo[e]indol-2-yl)-methanone]"
4,> 100000 nM,"COc1cc(C(=O)c2cc3c(cc(OC)c4ccccc43)[nH]2)ccc1N [ACT-PFK-131, (4-Amino-3-methoxy-phenyl)-(5-methoxy-3H-benzo[e]indol-2-yl)-methanone]"
5,2350 nM,"CS(=O)(=O)Nc1ccc(C(=O)c2cc3c(ccc4ccccc43)[nH]2)cc1 [ACT-PFK-133, N-[4-(3H-Benzo[e]indole-2-carbonyl)-phenyl]-methanesulfonamide]"
6,3300 nM,"Nc1ccc(NC(=O)c2cc3c(ccc4ccccc43)[nH]2)cc1 [ACT-PFK-134, 3H-Benzo[e]indole-2-carboxylic acid (4-amino-phenyl)-amide]"

# Tested on: U937
# Assay: as above
# Format: cell-based
# Details: Homo sapiens, U-937
# Procedure: as §1
row,IC50,SMILES
1,> 100000 nM,"O=C(c1ccccc1)c1cc2c(ccc3cccnc32)[nH]1 [ACT-PFK-102, Phenyl-(7H-pyrrolo[2,3-h]quinolin-8-yl)-methanone]"

# Tested on: Calu-6
# Assay: as above
# Format: cell-based
# Details: Homo sapiens, Calu-6
# Procedure: as §1
row,SMILES,IC50
1,"O=C(c1ccccc1)c1cc2c(ccc3cccnc32)[nH]1 [ACT-PFK-102, Phenyl-(7H-pyrrolo[2,3-h]quinolin-8-yl)-methanone]",> 100000 nM
2,"O=C(c1cccc(CO)c1)c1cc2c(ccc3ccccc32)[nH]1 [ACT-PFK-120, (3H-Benzo[e]indol-2-yl)-(3-hydroxymethyl-phenyl)-methanone]",55 nM
3,"O=C(c1cc2c(cc(F)c3ccccc32)[nH]1)C1CCCCC1 [ACT-PFK-121, Cyclohexyl-(5-fluoro-3H-benzo[e]indol-2-yl)-methanone]",79 nM
4,"O=C(c1ccc(O)c(F)c1)c1cc2c(cc(F)c3ccccc32)[nH]1 [ACT-PFK-122, (5-Fluoro-3H-benzo[e]indol-2-yl)-(3-fluoro-4-hydroxy-phenyl)-methanone]",70 nM
5,"COc1cccc(C(O)c2cc3c(ccc4ccccc43)[nH]2)c1 (stereo not shown) [ACT-PFK-124, (3H-Benzo[e]indol-2-yl)-(3-methoxy-phenyl)-methanol]",10400 nM
6,"OC(c1ccncc1)c1cc2c(ccc3ccccc32)[nH]1 (stereo not shown) [ACT-PFK-125, (3H-Benzo[e]indol-2-yl)-pyridin-4-yl-methanol]",39500 nM
7,"O=C(Nc1ccccc1)c1cc2c(ccc3ccccc32)[nH]1 [ACT-PFK-126, 3H-Benzo[e]indole-2-carboxylic acid phenylamide]",1100 nM
8,"COc1cccc(NC(=O)c2cc3c(ccc4ccccc43)[nH]2)c1 [ACT-PFK-127, 3H-Benzo[e]indole-2-carboxylic acid (3-methoxy-phenyl)-amide]",1020 nM

# More lines, now with the values ahead:
row,IC50,SMILES
1,> 100000 nM,"CN(C)c1ccc(C(=O)c2cc3c(ccc4ccccc43)[nH]2)cc1 [ACT-PFK-128, (3H-Benzo[e]indol-2-yl)-(4-dimethylamino-phenyl)-methanone]"
2,355 nM,"COc1cc(C(=O)c2cc3c(ccc4ccccc43)[nH]2)ccc1N [ACT-PFK-129, (4-Amino-3-methoxy-phenyl)-(3H-benzo[e]indol-2-yl)-methanone]"
3,1650 nM,"COc1cc(C(=O)c2cc3c(cc(O)c4ccccc43)[nH]2)ccc1N [ACT-PFK-130, (4-Amino-3-methoxy-phenyl)-(5-hydroxy-3H-benzo[e]indol-2-yl)-methanone]"
4,> 100000 nM,"COc1cc(C(=O)c2cc3c(cc(OC)c4ccccc43)[nH]2)ccc1N [ACT-PFK-131, (4-Amino-3-methoxy-phenyl)-(5-methoxy-3H-benzo[e]indol-2-yl)-methanone]"
5,40800 nM,"CS(=O)(=O)Nc1ccc(C(=O)c2cc3c(ccc4ccccc43)[nH]2)cc1 [ACT-PFK-133, N-[4-(3H-Benzo[e]indole-2-carbonyl)-phenyl]-methanesulfonamide]"
6,2450 nM,"Nc1ccc(NC(=O)c2cc3c(ccc4ccccc43)[nH]2)cc1 [ACT-PFK-134, 3H-Benzo[e]indole-2-carboxylic acid (4-amino-phenyl)-amide]"
